Results published in ChEMBL document CHEMBL1201862, “PubChem BioAssay data set” (2004).
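Interpolation was linear, between the two tested concentrations surrounding the appropriate level; five concentrations were tested over 48 hours in 96-well plates. The concentration for 50% growth inhibition is given as GI50.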 Active and inactive are the calls of the source. Cut-off read from the data, not from the text of the source: active = GI50 up to about 1.1 µM and inactive = higher.

What was measured:
Assay in all cases: DTP human tumour cell line panel, 48 h
LOX IMVI = test system: LOX IMVI
MDA-MB-231 = test system: MDA-MB-231
RPMI-8226 = test system: RPMI-8226
HT-29 = test system: HT-29
CAKI-1 = test system: CAKI-1
A549 = test system: A549
SW-620 = test system: SW-620
HCT-116 = test system: HCT-116
OVCAR-3 = test system: OVCAR-3
SN12C = test system: SN12C
NCI-H460 = test system: NCI-H460
SK-MEL-28 = test system: SK-MEL-28
ACHN = test system: ACHN
CCRF-CEM = test system: CCRF-CEM
Hs-578T = test system: Hs-578T
MOLT-4 = test system: MOLT-4
786-0 = test system: 786-0
UO-31 = test system: UO-31
NCI-H226 = test system: NCI-H226
NCI-H23 = test system: NCI-H23
EKVX = test system: EKVX
A498 = test system: A498
RXF 393 = test system: RXF 393
HCC 2998 = test system: HCC 2998
UACC-257 = test system: UACC-257
OVCAR-8 = test system: OVCAR-8
MCF7 = test system: MCF7
T47D = test system: T47D
SK-MEL-2 = test system: SK-MEL-2
DU-145 = test system: DU-145
COLO 205 = test system: COLO 205
MDA-MB-435 = test system: MDA-MB-435
SK-OV-3 = test system: SK-OV-3
BT-549 = test system: BT-549
Malme-3M = test system: Malme-3M
KM12 = test system: KM12
NCI-H522 = test system: NCI-H522
M14 = test system: M14
PC-3 = test system: PC-3
IGROV-1 = test system: IGROV-1
SNB-75 = test system: SNB-75
SF-539 = test system: SF-539
SK-MEL-5 = test system: SK-MEL-5
SF-295 = test system: SF-295
OVCAR-4 = test system: OVCAR-4
MDA-N = test system: MDA-N
HCT-15 = test system: HCT-15
NCI/ADR-RES = test system: NCI/ADR-RES
TK-10 = test system: TK-10
OVCAR-5 = test system: OVCAR-5
U-251 = test system: U-251
K562 = test system: K562
UACC-62 = test system: UACC-62
HL-60 = test system: HL-60
HOP-62 = test system: HOP-62
SF-268 = test system: SF-268

COc1ccc(OC)c2c(Nc3ccc(S(=O)(=O)O)c4cc(S(=O)(=O)O)cc(S(=O)(=O)O)c34)cc(C)nc12
GI50 (LOX IMVI): > 100 µM (inactive) | GI50 (MDA-MB-231): > 100 µM (inactive) | GI50 (RPMI-8226): > 100 µM (inactive) | GI50 (HT-29): > 100 µM (inactive) | GI50 (CAKI-1): > 100 µM (inactive) | GI50 (A549): > 100 µM (inactive) | GI50 (SW-620): > 100 µM (inactive) | GI50 (HCT-116): > 100 µM (inactive) | GI50 (OVCAR-3): > 100 µM (inactive) | GI50 (SN12C): > 100 µM (inactive) | GI50 (NCI-H460): > 100 µM (inactive) | GI50 (SK-MEL-28): > 100 µM (inactive) | GI50 (ACHN): > 100 µM (inactive) | GI50 (CCRF-CEM): > 100 µM (inactive) | GI50 (Hs-578T): > 100 µM (inactive) | GI50 (MOLT-4): > 100 µM (inactive) | GI50 (786-0): > 100 µM (inactive) | GI50 (UO-31): > 100 µM (inactive) | GI50 (NCI-H226): > 100 µM (inactive) | GI50 (NCI-H23): > 100 µM (inactive) | GI50 (EKVX): > 100 µM (inactive) | GI50 (A498): > 100 µM (inactive) | GI50 (RXF 393): > 100 µM (inactive) | GI50 (HCC 2998): 10.8 µM (inactive) | GI50 (UACC-257): > 100 µM (inactive) | GI50 (OVCAR-8): > 100 µM (inactive) | GI50 (MCF7): > 100 µM (inactive) | GI50 (T47D): > 100 µM (inactive) | GI50 (SK-MEL-2): > 100 µM (inactive) | GI50 (DU-145): > 100 µM (inactive) | GI50 (COLO 205): > 100 µM (inactive) | GI50 (MDA-MB-435): > 100 µM (inactive) | GI50 (SK-OV-3): > 100 µM (inactive) | GI50 (BT-549): > 100 µM (inactive) | GI50 (Malme-3M): > 100 µM (inactive) | GI50 (KM12): > 100 µM (inactive) | GI50 (NCI-H522): > 100 µM (inactive) | GI50 (M14): > 100 µM (inactive) | GI50 (PC-3): > 100 µM (inactive) | GI50 (IGROV-1): > 100 µM (inactive) | GI50 (SNB-75): > 100 µM (inactive) | GI50 (SF-539): > 100 µM (inactive) | GI50 (SK-MEL-5): > 100 µM (inactive) | GI50 (SF-295): > 100 µM (inactive) | GI50 (OVCAR-4): > 100 µM (inactive) | GI50 (MDA-N): > 100 µM (inactive) | GI50 (HCT-15): > 100 µM | GI50 (NCI/ADR-RES): > 100 µM (inactive) | GI50 (TK-10): > 100 µM (inactive) | GI50 (OVCAR-5): > 100 µM (inactive) | GI50 (U-251): > 100 µM (inactive) | GI50 (K562): > 100 µM (inactive) | GI50 (UACC-62): > 100 µM (inactive) | GI50 (HL-60): > 100 µM (inactive) | GI50 (HOP-62): > 100 µM (inactive) | GI50 (SF-268): > 100 µM (inactive)
